Assay results: patent US6992079B2, “Substituted 11-phenyl-dibenzazepine compounds useful for the treatment or prevention of diseases characterized by abnormal cell proliferation” (President Fellows of Harvard College, priority 1997, dated 2006)
Like-named read-outs stand apart in the source and are kept apart here.

How the values were obtained:
[1] = system: MDA-N; assay: In-Vitro Testing SRB panel: Breast Cancer; format: cell-based
[2] = system: NIH 3T3 mouse fibroblast cells; assay: Mitogenic assay (mitogen-induced cell proliferation); format: cell-based; conditions: Mus musculus, NIH3T3, 10 μM compound
[3] = system: OVCAR-5; assay: In-Vitro Testing SRB panel: Ovarian Cancer; format: cell-based
[4] = system: OVCAR-4; assay: In-Vitro Testing SRB panel: Ovarian Cancer; format: cell-based
[5] = system: squamous cell carcinoma (KLN-205) cells; assay: Tumor growth in murine squamous cell carcinoma model; format: in vivo, mouse; conditions: KLN-205; subcutaneous injection or oral administration of 80 mg/kg/day for 30 days
[6] = system: SF-295; assay: In-Vitro Testing SRB panel: CNS Cancer; format: cell-based
[7] = system: NCI-H460; format: cell-based
[8] = system: A498; assay: In-Vitro Testing SRB panel: Renal Cancer; format: cell-based
[9] = system: SK-MEL-2; assay: In-Vitro Testing SRB panel: Melanoma; format: cell-based
[10] = system: panel of human cancer cells; assay: In vitro screening, SRB, panel of 60 human cancer cell lines; format: cell-based
[11] = system: A549/ATCC; format: cell-based
[12] = system: SK-MEL-5; assay: In-Vitro Testing SRB panel: Melanoma; format: cell-based
[13] = system: NCI-H522; format: cell-based
[14] = system: MC-F7; assay: In-Vitro Testing SRB panel: Breast Cancer; format: cell-based
[15] = system: PC-3; assay: In-Vitro Testing SRB panel: Prostate Cancer; format: cell-based
[16] = system: MDA-MB-23; assay: SRB antiproliferative assay; format: cell-based; conditions: Homo sapiens; MDA-MB-23 (Breast); SRB; 5% FCS/5 day incubation; read-out: IC50
From the text: (§1) The cells were passaged using Trypsin (Gibco).

[17] = system: MMRU; assay: SRB antiproliferative assay; format: cell-based; conditions: Homo sapiens, MMRU (Melanoma), 5% FCS/5 day incubation
From the text: as §1

[18] = system: HCT-15; assay: In-Vitro Testing SRB panel: Colon Cancer; format: cell-based
[19] = system: SNB-75; assay: In-Vitro Testing SRB panel: CNS Cancer; format: cell-based
[20] = system: DU-145; assay: In-Vitro Testing SRB panel: Prostate Cancer; format: cell-based

COc1ccc2c(c1)CN(C(=O)c1ccc([N+](=O)[O-])cc1)c1ccc(Cl)cc1C2c1ccccc1Cl (stereo not shown) [Compound 30]
TGI [1]: >1.00E−04 Molar | CC50 ([1]; Homo sapiens, read-out: LC50 (the source's name)): > 100 µM | Percent Growth ([1]; Log10 concentration −4.0 Molar): 51% | Percent Growth ([1]; Log10 concentration −5.0 Molar): 39% | Percent Growth ([1]; Log10 concentration −6.0 Molar): 83% | Percent Growth ([1]; Log10 concentration −7.0 Molar): 93% | Percent Growth ([1]; Log10 concentration −8.0 Molar): 101% | inhibition at 10 µM [2]: 99% | GI50 ([3]; Homo sapiens, OVCAR-5): > 100 µM | CC50 ([3]; Homo sapiens, OVCAR-5, read-out: LC50 (the source's name)): > 100 µM | TGI ([3]; OVCAR-5): >1.00E−04 Molar | Percent Growth ([3]; OVCAR-5, Log10 concentration −4.0 Molar): 78% | Percent Growth ([3]; OVCAR-5, Log10 concentration −5.0 Molar): 86% | Percent Growth ([3]; OVCAR-5, Log10 concentration −6.0 Molar): 98% | Percent Growth ([3]; OVCAR-5, Log10 concentration −7.0 Molar): 106% | Percent Growth ([3]; OVCAR-5, Log10 concentration −8.0 Molar): 102% | GI50 ([4]; Homo sapiens, OVCAR-4): 1.86 µM | CC50 ([4]; Homo sapiens, OVCAR-4, read-out: LC50 (the source's name)): > 100 µM | TGI ([4]; OVCAR-4): 9.89E−06 Molar | Percent Growth ([4]; OVCAR-4, Log10 concentration −4.0 Molar): −9% | Percent Growth ([4]; OVCAR-4, Log10 concentration −5.0 Molar): 0% | Percent Growth ([4]; OVCAR-4, Log10 concentration −6.0 Molar): 69% | Percent Growth ([4]; OVCAR-4, Log10 concentration −7.0 Molar): 103% | Percent Growth ([4]; OVCAR-4, Log10 concentration −8.0 Molar): 109% | tumor growth [5]: significantly inhibited tumor growth | GI50 ([6]; Homo sapiens, SF-295): 6.49 µM | CC50 ([6]; Homo sapiens, SF-295, read-out: LC50 (the source's name)): > 100 µM | TGI ([6]; SF-295): >1.00E−04 Molar | Percent Growth ([6]; SF-295, Log10 concentration −4.0 Molar): 32% | Percent Growth ([6]; SF-295, Log10 concentration −5.0 Molar): 41% | Percent Growth ([6]; SF-295, Log10 concentration −6.0 Molar): 88% | Percent Growth ([6]; SF-295, Log10 concentration −7.0 Molar): 104% | Percent Growth ([6]; SF-295, Log10 concentration −8.0 Molar): 93% | GI50 ([7]; Homo sapiens, NCI-H460): 2.12 µM | CC50 ([7]; Homo sapiens, NCI-H460, read-out: LC50 (the source's name)): > 100 µM | TGI ([7]; NCI-H460): >1.00E−04 Molar | Percent Growth ([7]; NCI-H460, Log10 concentration −4.0 Molar): 20% | Percent Growth ([7]; NCI-H460, Log10 concentration −5.0 Molar): 16% | Percent Growth ([7]; NCI-H460, Log10 concentration −6.0 Molar): 67% | Percent Growth ([7]; NCI-H460, Log10 concentration −7.0 Molar): 97% | Percent Growth ([7]; NCI-H460, Log10 concentration −8.0 Molar): 91% | TGI ([8]; A498): >1.00E−04 Molar | Percent Growth ([8]; A498, Log10 concentration −4.0 Molar): 54% | Percent Growth ([8]; A498, Log10 concentration −5.0 Molar): 64% | Percent Growth ([8]; A498, Log10 concentration −6.0 Molar): 87% | Percent Growth ([8]; A498, Log10 concentration −7.0 Molar): 102% | Percent Growth ([8]; A498, Log10 concentration −8.0 Molar): 95% | GI50 ([8]; Homo sapiens, A498): > 100 µM | CC50 ([8]; Homo sapiens, A498, read-out: LC50 (the source's name)): > 100 µM | GI50 ([9]; Homo sapiens, SK-MEL-2): > 100 µM | CC50 ([9]; Homo sapiens, SK-MEL-2, read-out: LC50 (the source's name)): > 100 µM | TGI ([9]; SK-MEL-2): >1.00E−04 Molar | Percent Growth ([9]; SK-MEL-2, Log10 concentration −4.0 Molar): 71% | Percent Growth ([9]; SK-MEL-2, Log10 concentration −5.0 Molar): 74% | Percent Growth ([9]; SK-MEL-2, Log10 concentration −6.0 Molar): 95% | Percent Growth ([9]; SK-MEL-2, Log10 concentration −7.0 Molar): 94% | Percent Growth ([9]; SK-MEL-2, Log10 concentration −8.0 Molar): 102% | activity against the human cell panel [10]: exhibited activity against the human cell panel | TGI ([11]; A549/ATCC): >1.00E−04 Molar | Percent Growth ([11]; A549/ATCC, Log10 concentration −4.0 Molar): 23% | Percent Growth ([11]; A549/ATCC, Log10 concentration −5.0 Molar): 25% | Percent Growth ([11]; A549/ATCC, Log10 concentration −6.0 Molar): 81% | Percent Growth ([11]; A549/ATCC, Log10 concentration −7.0 Molar): 96% | Percent Growth ([11]; A549/ATCC, Log10 concentration −8.0 Molar): 96% | GI50 ([11]; Homo sapiens, A549): 3.57 µM | CC50 ([11]; Homo sapiens, A549/ATCC, read-out: LC50 (the source's name)): > 100 µM | GI50 ([12]; Homo sapiens, SK-MEL-5): 3.95 µM | CC50 ([12]; Homo sapiens, SK-MEL-5, read-out: LC50 (the source's name)): > 100 µM | TGI ([12]; SK-MEL-5): >1.00E−04 Molar | Percent Growth ([12]; SK-MEL-5, Log10 concentration −4.0 Molar): 12% | Percent Growth ([12]; SK-MEL-5, Log10 concentration −5.0 Molar): 26% | Percent Growth ([12]; SK-MEL-5, Log10 concentration −6.0 Molar): 85% | Percent Growth ([12]; SK-MEL-5, Log10 concentration −7.0 Molar): 90% | Percent Growth ([12]; SK-MEL-5, Log10 concentration −8.0 Molar): 93% | GI50 ([13]; Homo sapiens, NCI-H522): 0.76 µM | CC50 ([13]; Homo sapiens, NCI-H522, read-out: LC50 (the source's name)): > 100 µM | TGI ([13]; NCI-H522): 6.10E−05 Molar | Percent Growth ([13]; NCI-H522, Log10 concentration −4.0 Molar): −9% | Percent Growth ([13]; NCI-H522, Log10 concentration −5.0 Molar): 19% | Percent Growth ([13]; NCI-H522, Log10 concentration −6.0 Molar): 42% | Percent Growth ([13]; NCI-H522, Log10 concentration −7.0 Molar): 113% | Percent Growth ([13]; NCI-H522, Log10 concentration −8.0 Molar): 114% | GI50 ([14]; Homo sapiens, MCF7): 5.38 µM | CC50 ([14]; Homo sapiens, MCF7, MC-F7, read-out: LC50 (the source's name)): > 100 µM | TGI ([14]; MC-F7): >1.00E−04 Molar | Percent Growth ([14]; MC-F7, Log10 concentration −4.0 Molar): 33% | Percent Growth ([14]; MC-F7, Log10 concentration −5.0 Molar): 36% | Percent Growth ([14]; MC-F7, Log10 concentration −6.0 Molar): 88% | Percent Growth ([14]; MC-F7, Log10 concentration −7.0 Molar): 106% | Percent Growth ([14]; MC-F7, Log10 concentration −8.0 Molar): 102% | GI50 ([15]; Homo sapiens, PC-3): 1.33 µM | CC50 ([15]; Homo sapiens, PC-3, read-out: LC50 (the source's name)): > 100 µM | TGI ([15]; PC-3): >1.00E−04 Molar | Percent Growth ([15]; PC-3, Log10 concentration −4.0 Molar): 30% | Percent Growth ([15]; PC-3, Log10 concentration −5.0 Molar): 29% | Percent Growth ([15]; PC-3, Log10 concentration −6.0 Molar): 53% | Percent Growth ([15]; PC-3, Log10 concentration −7.0 Molar): 103% | Percent Growth ([15]; PC-3, Log10 concentration −8.0 Molar): 100% | IC50 [16]: 0.9 µM | IC50 [17]: 0.5 µM | TGI ([18]; HCT-15): >1.00E−04 Molar | Percent Growth ([18]; HCT-15, Log10 concentration −4.0 Molar): 39% | Percent Growth ([18]; HCT-15, Log10 concentration −5.0 Molar): 40% | Percent Growth ([18]; HCT-15, Log10 concentration −6.0 Molar): 77% | Percent Growth ([18]; HCT-15, Log10 concentration −7.0 Molar): 98% | Percent Growth ([18]; HCT-15, Log10 concentration −8.0 Molar): 109% | GI50 ([18]; Homo sapiens, HCT-15): 5.28 µM | CC50 ([18]; Homo sapiens, HCT-15, read-out: LC50 (the source's name)): > 100 µM | GI50 ([19]; Homo sapiens, SNB-75): 4.52 µM | CC50 ([19]; Homo sapiens, SNB-75, read-out: LC50 (the source's name)): > 100 µM | TGI ([19]; SNB-75): >1.00E−04 Molar | Percent Growth ([19]; SNB-75, Log10 concentration −4.0 Molar): 25% | Percent Growth ([19]; SNB-75, Log10 concentration −5.0 Molar): 32% | Percent Growth ([19]; SNB-75, Log10 concentration −6.0 Molar): 83% | Percent Growth ([19]; SNB-75, Log10 concentration −7.0 Molar): 103% | Percent Growth ([19]; SNB-75, Log10 concentration −8.0 Molar): 99% | TGI ([20]; DU-145): >1.00E−04 Molar | Percent Growth ([20]; DU-145, Log10 concentration −4.0 Molar): 31% | Percent Growth ([20]; DU-145, Log10 concentration −5.0 Molar): 38% | Percent Growth ([20]; DU-145, Log10 concentration −6.0 Molar): 95% | Percent Growth ([20]; DU-145, Log10 concentration −7.0 Molar): 98% | Percent Growth ([20]; DU-145, Log10 concentration −8.0 Molar): 98% | GI50 ([20]; Homo sapiens, DU-145): 6.24 µM | CC50 ([20]; Homo sapiens, DU-145, read-out: LC50 (the source's name)): > 100 µM
